IC50 data for 6 compounds are collected here from ChEMBL document CHEMBL4004816, “Complementarity of DFT Calculations, NMR Anisotropy, and ECD for the Configurational Analysis of Brevipolides K-O from Hyptis brevipes” (J Nat Prod, 2017).

Holding throughout (type): functional, cell-based
In one assay the test system is HCT-15. The assay is described as follows: Cytotoxicity against human HCT15 cells assessed as growth inhibition after 72 hrs by SRB assay. The following applies: HCT-15, 72 h. A general note: Sulforhodamine B stains cellular protein and so reports cell mass.
Another assay concerns PC-3. The assay is described as follows: Cytotoxicity against human PC3 cells assessed as growth inhibition after 72 hrs by SRB assay. The following applies: PC-3, 72 h.
Another assay deals with MCF7. The assay is described as follows: Cytotoxicity against human MCF7 cells assessed as growth inhibition after 72 hrs by SRB assay. The following applies: MCF7, 72 h.
A further assay relates to HEp-2. The assay is described as follows: Cytotoxicity against human Hep2 cells assessed as growth inhibition after 72 hrs by SRB assay. As to conditions: HEp-2, 72 h.
The test system of another assay is HeLa. The assay is described as follows: Cytotoxicity against human HeLa cells assessed as growth inhibition after 72 hrs by SRB assay.
Another assay deals with KB. The assay is described as follows: Cytotoxicity against human KB cells assessed as growth inhibition after 72 hrs by SRB assay.

Molecules are shown by their SMILES. Where only a bound is given, the exact number is not on record here.

As a reminder, the IC50 is the midpoint of a concentration-inhibition curve.

As for `C[C@H](OC(=O)/C=C/c1ccc(O)cc1)[C@@H]1CC[C@H]([C@H](O)[C@H]2CC=CC(=O)O2)O1`, the IC50 in the assay on HCT-15 is over 10 µM; in the assay on PC-3, over 10 µM; in the assay with MCF7, over 10 µM; in the assay with HEp-2, over 10 µM; in the assay on HeLa it was 9.5 µM; with KB it was 3.6 µM.

As for `COc1ccc(/C=C\C(=O)O[C@@H](C)[C@@H]2CC[C@H]([C@H](O)[C@H]3CC=CC(=O)O3)O2)cc1`, the IC50 is over 10 µM with HCT-15; 10 µM with PC-3; over 10 µM with MCF7; over 10 µM in the assay on HEp-2; 4.2 µM in the assay on HeLa; 9.5 µM in the assay on KB.

For the compound `COc1ccc(/C=C/C(=O)O[C@@H](C)[C@@H]2CC[C@H]([C@H](O)[C@H]3CC=CC(=O)O3)O2)cc1`, the concentration for half-maximal inhibition (IC50) was over 10 µM in the assay with HCT-15; 7.5 µM in the assay on PC-3; over 10 µM with MCF7; 5.7 µM in the assay on HEp-2; 6 µM in the assay with HeLa; 1.7 µM in the assay with KB.

As to `C[C@H](OC(=O)/C=C/c1ccc(O)c(O)c1)[C@@H]1CC[C@H]([C@H](O)[C@H]2CC=CC(=O)O2)O1`, the concentration for half-maximal inhibition (IC50) in the assay with HCT-15 was over 10 µM; in the assay with PC-3, over 10 µM; in the assay with MCF7, over 10 µM; in the assay with HEp-2, 9.4 µM; with HeLa, 6.9 µM; with KB it was 4.9 µM.

`C[C@H](OC(=O)/C=C\c1ccc(O)cc1)[C@@H]1CC[C@H]([C@H](O)[C@H]2CC=CC(=O)O2)O1`: the half-inhibitory concentration (IC50) with HCT-15 was over 10 µM; with PC-3, 8.8 µM; in the assay with MCF7, 9.3 µM; in the assay on HEp-2 it was 7.7 µM; in the assay on HeLa, 3.3 µM; with KB, 7.5 µM.

As for `CC[C@]1(O)C[C@@H]2CN(CCc3c([nH]c4ccccc34)[C@@](C(=O)OC)(c3cc4c(cc3OC)N(C)[C@H]3[C@@](O)(C(=O)OC)[C@H](OC(C)=O)[C@]5(CC)C=CCN6CC[C@]43[C@@H]65)C2)C1` [VINBLASTINE], the half-maximal inhibitory concentration (IC50) in the assay with HCT-15 turned out to be 0.002 µM; in the assay on PC-3, 0.001 µM; with MCF7, 0.004 µM; in the assay on HEp-2, 0.007 µM; with HeLa, 0.001 µM; in the assay on KB, 0.006 µM.
